# Literature values, collected in PMC12308805, “Ultrahigh-Throughput Virtual Screening Strategies against PPI Targets: A Case Study of STAT Inhibitors” (Journal of Chemical Information and Modeling, 2025).
# Square brackets hold non-standard residues; d marks the D form. Peptide text beside a SMILES is read from it. * marks the point of attachment. Isobutyryl = CC(C)C(=O)*
# Test system: STAT3
# Settings: sheet 6QHD_actives_decoys, retrospective screening set for STAT3 SH2 domain (PDB 6QHD); decoys are presumed inactives, not tested; ref DUD-E; cited from earlier work
row,SMILES,Type
1,CNC(=O)[C@H](CC(C)C)NC(=O)[C@H](Cc1cnc[nH]1)NC(=O)[C@@H](C)NC(=O)[C@@H](NC(=O)[C@H](C)NC(=O)[C@H](Cc1c[nH]c2ccccc12)NC(=O)[C@H](Cc1cnc[nH]1)NC(=O)C(C)C)C(C)C [Decoy806] (Isobutyryl-HWAV[dA]HL-NHMe),Inactive (Decoy)
2,CC(=O)Nc1cccc(NC(=O)CSc2nnc(N/N=C/c3c(O)ccc4ccccc34)n2N)c1 [Decoy752],Inactive (Decoy)
3,CC(=O)O[C@@H]1[C@@H](O)[C@H](CO)O[C@H](O[C@@H](/C=N/c2cnc([N+](=O)[O-])s2)[C@@H](CO)O[C@H](O)/C=N/c2cnc([N+](=O)[O-])s2)[C@@H]1O [Decoy908],Inactive (Decoy)
4,CNC(=O)[C@H](CC(C)C)NC(=O)[C@H](Cc1c[nH]cn1)NC(=O)[C@@H](C)NC(=O)[C@@H](NC(=O)[C@H](C)NC(=O)[C@H](Cc1c[nH]c2ccccc12)NC(=O)[C@H](Cc1cnc[nH]1)NC(=O)C(C)C)C(C)C [Decoy805] (Isobutyryl-HWAV[dA]HL-NHMe),Inactive (Decoy)
5,CCOC(=O)N[C@@](Nc1ccc(S(=O)(=O)Nc2ncccn2)cc1)(C(=O)OCC)C(F)(F)F [Decoy792],Inactive (Decoy)
6,CCOC(=O)[C@@H]1[C@@H](C(=O)OCC)[C@H]2/C(=N\NS(=O)(=O)c3ccc(C)cc3)[C@H]3[C@@H](C(=O)OCC)[C@@H](C(=O)OCC)[C@@H]3/C(=N\NS(=O)(=O)c3ccc(C)cc3)[C@@H]12 [Decoy764],Inactive (Decoy)
7,Cc1cc(NC(=O)CSc2nncn2C)ccc1-c1ccc(NC(=O)CSc2nncn2C)cc1C [Decoy777],Inactive (Decoy)
8,CCCOc1cccc(C(=O)NC(=S)Nc2ccc(S(=O)(=O)Nc3cc(OC)ncn3)cc2)c1 [Decoy947],Inactive (Decoy)
9,COc1cc([C@H]2OC[C@H]3[C@@H]2CO[C@H]3c2ccc(O[C@@H]3O[C@H](CO[C@@H]4O[C@@H](C)[C@H](O)[C@@H](O)[C@H]4O)[C@@H](O)[C@H](O)[C@H]3O)c(OC)c2)ccc1O [Decoy911],Inactive (Decoy)
10,CC1(C)[C@]2(C(=O)NCCN(CCNC(=O)[C@]34CC[C@](C)(C(=O)C3)C4(C)C)CCNC(=O)[C@]34CC[C@](C)(C(=O)C3)C4(C)C)CC[C@@]1(C)C(=O)C2 [Decoy839],Inactive (Decoy)
11,CCOC(=O)CCCCC(=O)c1[nH]c(=O)[nH]c1CSc1nnc2c3ccccc3n(CCc3ccccc3)c2n1 [Decoy938],Inactive (Decoy)
12,CC(C)COC(=O)c1ccc(Nc2ncnc(NNC(=O)Cc3ccc([N+](=O)[O-])cc3)c2[N+](=O)[O-])cc1 [Decoy822],Inactive (Decoy)
13,CCOc1cc([C@@H]2C(C(=O)c3ccc4c(c3)OCCO4)=C(O)C(=O)N2CCCN2CCOCC2)ccc1O [Decoy848],Inactive (Decoy)
14,CC(=O)c1cccc(S(=O)(=O)NCCC(=O)Nc2ccc(S(=O)(=O)/N=C3\CCCCCN3)cc2)c1 [Decoy783],Inactive (Decoy)
15,CC(=C\C(=O)O)/C=C(\C)C[C@@H](C)CCCC[C@H](O)[C@@H](CO)C(=O)OC[C@H]1O[C@@H](O)[C@@H](O)[C@@H](O)[C@H]1O [Decoy876],Inactive (Decoy)
16,CCOC(=O)c1ccc(NC(=O)CCN2C(=O)/C(=C3\SC(=S)N(CCC(=O)Nc4ccc(C(=O)OCC)cc4)C3=O)SC2=S)cc1 [Decoy869],Inactive (Decoy)
17,Cn1c(CCCC(=O)O)nc2cc(N(CCO)CCOC(=O)CCCc3nc4cc(N(CCO)CCO)ccc4n3C)ccc21 [Decoy826],Inactive (Decoy)
18,CCSc1nnc(NC(=O)CSc2n[nH]c(N/N=C/c3ccc(F)cc3)n2)s1 [Decoy803],Inactive (Decoy)
19,CCCCN(C)S(=O)(=O)c1ccc(C(=O)Nc2ccc(S(=O)(=O)Nc3nc(C)cc(C)n3)cc2)cc1 [Decoy757],Inactive (Decoy)
20,CCSc1nnc(NC(=O)CSc2nnc(CNC(=O)c3cccs3)n2-c2ccccc2OC)s1 [Decoy853],Inactive (Decoy)
21,CCOC(=O)c1sc(NC(=O)CSc2n[nH]c(N/N=C/c3ccc(C)cc3)n2)c(C#N)c1C [Decoy916],Inactive (Decoy)
22,CCC(CC)C(=O)Nc1cccc(C(=O)Nc2ccc(S(=O)(=O)Nc3nccc(C)n3)cc2)c1 [Decoy917],Inactive (Decoy)
23,CCC/C=C/[C@@H](C(=O)NCS(=O)(=O)c1ccc(C)cc1)N(Cc1ccco1)C(=O)c1c(O)cccc1O [Decoy942],Inactive (Decoy)

# Same assay, conditions: sheet 6QHD_actives_decoys; known STAT3 actives of the retrospective screening set; ref ChEMBL / literature; cited from earlier work
row,SMILES,Type (known STAT3 active)
1,CC(C)C[C@H](NC(=O)/C=C/c1ccc(OP(=O)(O)O)cc1)C(=O)N1C[C@H]2C[C@H]2[C@H]1C(=O)NCCCC(N)=O [CHEMBL577143],Active
2,CC(C)C[C@H](NC(=O)/C=C/c1ccc(OP(=O)(O)O)cc1)C(=O)N1CCC[C@H]1C(=O)N[C@@H](CCC(N)=O)COCc1ccccc1 [CHEMBL573904],Active

# Same assay, conditions: sheet 6QHD_actives_decoys; retrospective screening set for STAT3 SH2 domain (PDB 6QHD); […]; ref DUD-E; cited from earlier work
row,SMILES,Type
1,COc1ccc(CCN2C(=O)NC(O)=C3C2=NC(=O)[C@@]3(NS(=O)(=O)c2nnc(NC(C)=O)s2)C(F)(F)F)cc1OC [Decoy687],Inactive (Decoy)
2,COc1ccccc1NS(=O)(=O)c1cccc(C(=O)NNC(=O)c2cc3ccccc3[nH]c2=O)c1 [Decoy693],Inactive (Decoy)
3,NCCNC(=O)Cc1ccc(NC(=O)Cc2ccc(Nc3ncnc4c3ncn4[C@@H]3O[C@H](CO)[C@@H](O)[C@H]3O)cc2)cc1 [Decoy655],Inactive (Decoy)
4,COc1cc(NS(=O)(=O)c2ccc(NC(=S)NC(=O)c3cc(Cl)cc(Cl)c3)cc2)ncn1 [Decoy392],Inactive (Decoy)
5,O=c1c(C[C@H](O)CN2CCOCC2)c(O)n(C[C@H](O)CN2CCOCC2)c(=O)n1C[C@H](O)CN1CCOCC1 [Decoy680],Inactive (Decoy)

# Same assay, conditions: sheet 6QHD_actives_decoys; retrospective screening set for STAT3 SH2 domain (PDB 6QHD); decoys generated with DUD-E and presumed inactive, not tested; ref DUD-E; cited from earlier work
row,SMILES,Type
1,CCCC(=O)C1=C(N2CCN(C3=C(C(=O)CCC)C(O)=C(C(=O)OC)C(C)(C)C3)CC2)CC(C)(C)[C@H](C(=O)OC)C1=O [Decoy436],Inactive (Decoy)
2,CC[C@@H]1OC(=O)[C@@H](C)[C@@H](O[C@@H]2C[C@@](C)(OC)[C@H](O)[C@H](C)O2)[C@@H](C)[C@@H](O[C@H]2O[C@@H](C)C[C@@H](N(C)C)[C@H]2O)[C@](C)(O)C[C@@H](C)/C(=N\OCOCCOC)[C@@H](C)[C@@H](O)[C@]1(C)O [Decoy579],Inactive (Decoy)
3,O=C(NCCCCCCNC(=O)N(CCO)[C@H]1CCS(=O)(=O)C1)N(CCO)[C@@H]1CCS(=O)(=O)C1 [Decoy656],Inactive (Decoy)
4,O=c1c(-c2ccc(O[C@@H]3O[C@H](CO)[C@@H](O)[C@H](O)[C@H]3O)cc2)coc2c(CN3CCCC3)c(O)c(CN3CCCC3)c(O)c12 [Decoy428],Inactive (Decoy)
5,CCN(CC)C1=NC(=O)[C@@H](CC(=O)Nc2cccc(C(=O)OCC(=O)c3ccc(C)cc3)c2)S1 [Decoy495],Inactive (Decoy)
6,O=C(CN(c1cccc([N+](=O)[O-])c1)S(=O)(=O)c1ccccc1)Nc1ccccc1C(=O)NCc1ccco1 [Decoy365],Inactive (Decoy)
7,COCCN(C/C(O)=N/c1nc(-c2ccc(Cl)cc2)cn1-c1ccc(OC)cc1)C(=O)C1CCCC1 [Decoy663],Inactive (Decoy)
8,COc1cc(O)c(C(C)=O)c(O[C@@H]2O[C@@H](CO[C@H]3O[C@@H](CO)[C@@H](O)[C@@H](O)[C@H]3O)[C@@H](O)[C@@H](O)[C@H]2O)c1 [Decoy717],Inactive (Decoy)
9,COC(=O)CNC(=O)C[C@@](C)(O)CC(=O)O[C@H]1[C@@H](O)C[C@@]2(C)C3=C(CC[C@H]2C1(C)C)[C@@]1(C)CC[C@H]([C@H](CO)CC[C@H](O)C(C)(C)O)[C@]1(C)[C@@H](O)C3 [Decoy481],Inactive (Decoy)
10,CC(=O)N[C@@H](C=O)C[C@@H](O[C@@H]1O[C@H](COC(C)=O)[C@H](OC(C)=O)[C@H](OC(C)=O)[C@H]1OC(C)=O)[C@H](O)[C@H](O)CO [Decoy561],Inactive (Decoy)
11,COCC(=O)Nc1c(I)c(C(=O)NC[C@H](O)CO)c(I)c(C(=O)N(C)C[C@H](O)CO)c1I [Decoy333],Inactive (Decoy)
12,COC(=O)c1ccc(NC(=O)CSc2nn3c(SCC(=O)Nc4ccc(C(=O)OC)cc4)nnc3s2)cc1 [Decoy625],Inactive (Decoy)
13,CCOC(=O)C1=C(CNc2cc(S(=O)(=O)N(CC)CC)ccc2OC)NC(=O)N[C@H]1c1cc(C)ccc1C [Decoy395],Inactive (Decoy)
14,COC(=O)CNC(=O)c1ccc(NC(=O)c2nc(NCc3ccco3)ncc2Cl)cc1 [Decoy529],Inactive (Decoy)
15,CN(Cc1cnc2nc(N)nc(N)c2n1)c1ccc(C(=O)N[C@H](CCC(=O)NCCNC(=O)CCCC[C@@H]2SC[C@@H]3NC(=O)N[C@@H]32)C(=O)O)cc1 [Decoy666],Inactive (Decoy)
16,CCCCOc1ccc([C@@H]2C(C(=O)c3nc4c(C)cccn4c3C)=C(O)C(=O)N2CCN(C)C)cc1OCC [Decoy578],Inactive (Decoy)
17,COC(=O)CCSCCO[C@@H]1O[C@H](CO)[C@@H](O[C@@H]2O[C@H](CO)[C@@H](O)[C@@H](O)[C@H]2O)[C@@H](O)[C@H]1NC(C)=O [Decoy352],Inactive (Decoy)
18,NCCCCCCNc1nc2c(N)ncnc2n1[C@H]1O[C@@H](CO[P@](=O)(O)O[P@](=O)(O)OP(=O)(O)O)[C@@H](O)[C@H]1O [Decoy384],Inactive (Decoy)
19,CCCSc1nnc(/N=C(\O)CSc2nnc(N/N=C/c3c(C)nn(C(C)C)c3C)n2N)s1 [Decoy476],Inactive (Decoy)
20,CCOC(=O)C1=C(C)NC(=O)N[C@H]1c1cc(OC)c(OCC(=O)Nc2ccc(C)cc2)cc1Br [Decoy705],Inactive (Decoy)
21,O=C(Nc1ccc2c(O)c(/N=N/c3ccccc3)c(S(=O)(=O)O)cc2c1)Nc1ccc2c(O)c(/N=N/c3ccccc3)c(S(=O)(=O)O)cc2c1 [Decoy486],Inactive (Decoy)
22,COC(=O)c1sc(NC(=O)c2ccc(C(=O)Nc3sc(C(=O)OC)c(C)c3C(=O)OC)cc2)c(C(=O)OC)c1C [Decoy394],Inactive (Decoy)
23,O=C(CCSc1n[nH]c(N/N=C/c2cccc(Br)c2)n1)Nc1ccccc1[N+](=O)[O-] [Decoy421],Inactive (Decoy)
24,CCOC(=O)CNC(=O)[C@@H](c1ccc(F)cc1)N(C(=O)c1snc(C(N)=O)c1N)c1ccccc1F [Decoy587],Inactive (Decoy)
